Series [1] addresses T1, recombinant human plasminogen activator inhibitor-1 (PAI-1) (Homo sapiens, UniProt P05121).
T1 construct: purchased Molecular Innovations, Royal Oak, Mich
Description: Primary Screen for the PAI-1 Inhibition (residual tPA activity, Spectrozyme-tPA chromogenic substrate). The series is classed as biochemical. The conditions noted are these: 25 μM test compound. As to the method: Primary Screen for the PAI-1 Inhibition
Test compounds are dissolved in DMSO at a final concentration of 10 mM, then diluted 100× in physiologic buffer. The inhibitory assay is initiated by the addition of the test compound (1-100 μM final concentration, maximum DMSO concentration of 0.2%) in a pH 6.6 buffer containing 140 nM recombinant human plasminogen activator inhibitor-1 (PAI-1; Molecular Innovations, Royal Oak, Mich.). Following a 1 hour incubation at room temperature, 70 nM of recombinant human tissue plasminogen activator (tPA) is added, and the combination of the test compound, PAI-1 and tPA is incubated for an additional 30 minutes. Following the second incubation, Spectrozyme-tPA (American Diagnostica, Greenwich, Conn.), a chromogenic substrate for tPA, is added and absorbance read at 405 nm at 0 and 60 minutes. Relative PAI-1 inhibition is equal to the residual tPA activity in the presence of the test compound and PAI-1. Control treatments include the complete inhibition of tPA by PAI-1 at the molar ratio employed (2:1), and the absence of any effect of the test compound on tPA alone.

These results are taken from patent US7368471B2, “Substituted indole acid derivatives as inhibitors of plasminogen activator inhibitor-1 (PAI-1)” (Wyeth, priority 2001, dated 2008).

T1 sequence (P05121 24-402): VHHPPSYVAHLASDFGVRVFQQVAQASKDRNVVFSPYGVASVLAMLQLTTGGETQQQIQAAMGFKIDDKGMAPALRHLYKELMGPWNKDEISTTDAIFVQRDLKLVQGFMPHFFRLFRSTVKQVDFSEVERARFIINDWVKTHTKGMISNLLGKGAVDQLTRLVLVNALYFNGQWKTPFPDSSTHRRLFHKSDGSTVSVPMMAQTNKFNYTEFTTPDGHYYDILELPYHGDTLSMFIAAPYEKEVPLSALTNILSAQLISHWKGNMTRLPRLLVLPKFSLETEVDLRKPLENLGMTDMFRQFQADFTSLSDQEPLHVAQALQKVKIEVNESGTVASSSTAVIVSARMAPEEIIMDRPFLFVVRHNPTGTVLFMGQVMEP

For `Cn1cc(C(=O)C(=O)O)c2ccc(-c3ccc(OC(F)(F)F)cc3)cc21` [Example 1, {1-Methyl-6-[4-(trifluoromethoxy)phenyl]-1H-indol-3-yl}(oxo)acetic acid], the melting point – broadly, the temperature of the solid-liquid transition – was 233 to 235 °C (dec.). In addition, in series [1], the inhibition (in general, the relative decrease from the control value, in per cent) at 25 µM was found to be 15%. On the same counts, the results for `CCn1cc(C(=O)C(=O)O)c2ccc(-c3ccc(OC(F)(F)F)cc3)cc21` [Example 3, {1-Ethyl-6-[4-(trifluoromethoxy)phenyl]-1H-indol-3-yl}(oxo)acetic acid] are 204 to 205 °C and 24%. For `CCn1cc(C(=O)C(=O)O)c2ccc(-c3ccc(C(F)(F)F)cc3)cc21` [Example 4, {1-Ethyl-6-[4-(trifluoromethyl)phenyl]-1H-indol-3-yl}(oxo)acetic acid] the same measures were 247 to 248 °C and 16%. Turning to `O=C(O)C(=O)c1cn(Cc2ccccc2)c2cc(-c3ccc(C(F)(F)F)cc3)ccc12` [Example 6, {1-Benzyl-6-[4-(trifluoromethyl)phenyl]-1H-indol-3-yl}(oxo)acetic acid], the melting point is 223 to 224 °C (dec.). For the same compound, the inhibition at 25 µM in series [1] came to 27%. On the same counts, the results for `CC(C)(C)c1ccc(Cn2cc(C(=O)C(=O)O)c3ccc(-c4ccc(C(F)(F)F)cc4)cc32)cc1` [Example 7, {1-[4-(tert-Butyl)benzyl]-6-[4-(trifluoromethyl)phenyl]-1H-indol-3-yl}(oxo)acetic acid] are 205 to 206 °C (dec.) and 26%. For `O=C(O)C(=O)c1cn(Cc2ccccc2)c2ccc(-c3ccc(C(F)(F)F)cc3)cc12` [Example 9, {1-Benzyl-5-[4-(trifluoromethyl)phenyl]-1H-indol-3-yl}(oxo)acetic acid] the same measures were 201 to 202 °C (dec.) and 40%. On the same counts, the results for `Cn1cc(C(=O)C(=O)O)c2ccc(-c3ccc(C(C)(C)C)cc3)cc21` [Example 10, {6-[4-(tert-Butyl)phenyl]-1-methyl-1H-indol-3-yl}(oxo)acetic acid] are 201 to 202 °C (dec.) and 33%. In the case of `CC(=O)c1ccc(-c2ccc3c(c2)c(C(=O)C(=O)O)cn3Cc2ccccc2)cc1` [Example 11, [5-(4-Acetylphenyl)-1-benzyl-1H-indol-3-yl](oxo)acetic acid], the melting point is 213 to 214 °C (dec.). The inhibition at 25 µM in series [1] stood at 19%. `O=C(O)C(=O)c1cn(Cc2ccccc2)c2cccc(-c3ccc(C(F)(F)F)cc3)c12` [Example 13, {1-Benzyl-4-[4-(trifluoromethyl)phenyl]-1H-indol-3-yl}(oxo)acetic acid] returned a melting point of 183 to 184 °C. Besides, the inhibition at 25 µM in series [1] is 27%. For `CC(C)(C)c1ccc(-c2ccc3c(c2)c(C(=O)C(=O)O)cn3Cc2ccccc2)cc1` [Example 14, {1-Benzyl-5-[4-(tert-butyl)phenyl]-1H-indol-3-yl}(oxo)acetic acid] the same measures were 210 to 211 °C (dec.) and 55%. For the compound `O=C(O)C(=O)c1cn(Cc2ccccc2)c2cccc(-c3ccc(OC(F)(F)F)cc3)c12` [Example 20, {1-Benzyl-4-[4-(trifluoromethoxy)phenyl]-1H-indol-3-yl}(oxo)acetic acid], in series [1], the inhibition at 25 µM turned out to be 14%. Still for that read-out and setting: for `O=C(O)C(=O)c1cn(Cc2ccccc2)c2cc(-c3ccccc3)ccc12` [Example 23, (1-Benzyl-6-phenyl-1H-indol-3-yl)(oxo)acetic acid] the value was 40%. Consider `O=C(O)C(=O)c1cn(Cc2ccccc2)c2ccc(-c3ccccc3)cc12` [Example 24, (1-Benzyl-5-phenyl-1H-indol-3-yl)(oxo)acetic acid], for which the melting point is 193 to 195 °C (dec.). The inhibition at 25 µM in series [1] turned out to be 47%. On the same counts, the results for `CCCCn1cc(C(=O)C(=O)O)c2cc(-c3cccc(OC)c3)ccc21` [Example 31, [1-Butyl-5-(3-methoxyphenyl)-1H-indol-3-yl](oxo)acetic acid] are 108 to 109 °C and 32%.

`CCCCn1cc(C(=O)C(=O)O)c2cc(-c3ccc(OC)cc3)ccc21` [Example 32, [1-Butyl-5-(4-methoxyphenyl)-1H-indol-3-yl](oxo)acetic acid]: the melting point lay within 172 to 173 °C. Moreover, in series [1], the inhibition at 25 µM was 28%. On the same counts, the results for `CC(C)(C)c1ccc(Cn2cc(C(=O)C(=O)O)c3cc(-c4ccc(Cl)cc4)ccc32)cc1` [Example 38, [1-(4-tert-Butylbenzyl)-5-(4-chlorophenyl)-1H-indol-3-yl](oxo)acetic acid] are 183 to 184 °C and 14%. Turning to `CC(=O)OCc1c(C(=O)C(=O)O)c2cc(-c3ccc(OC(F)(F)F)cc3)ccc2n1Cc1ccc(C)cc1` [Example 41, {2-[(Acetyloxy)methyl]-1-(4-methylbenzyl)-5-[4-(trifluoromethoxy)phenyl]-1H-indol-3-yl}(oxo)acetic acid], the melting point lay in the range of 79 to 80 °C. In series [1], the inhibition at 25 µM is 13%. As to `O=C(O)C(=O)c1cn(C2CCCC2)c2ccc(-c3cccc(Cl)c3)cc12` [Example 45, [5-(3-Chlorophenyl)-1-cyclopentyl-1H-indol-3-yl]-oxo-acetic acid], in series [1], the inhibition at 25 µM turned out to be 45%. Take `O=C(O)C(=O)c1cn(CC2CCC2)c2ccc(-c3cccc(Cl)c3)cc12` [Example 46, [5-(3-chlorophenyl)-1-(cyclobutylmethyl)-1H-indol-3-yl](oxo)acetic acid]: the inhibition at 25 µM in series [1] worked out at 45%. The same measure, in the same setting: for `O=C(O)C(=O)c1cn(C2CCCC2)c2ccc(-c3ccc(C(F)(F)F)cc3)cc12` [Example 49, [5-(4-trifluoromethylphenyl)-1-(cyclopentyl)-1H-indol-3-yl](oxo)acetic acid] the value was 54%. With `O=C(O)C(=O)c1cn(CC2CCC2)c2ccc(-c3ccc(C(F)(F)F)cc3)cc12` [Example 50, [5-(4-trifluoromethylphenyl)-1-(cyclobutylmethyl)-1H-indol-3-yl](oxo)acetic acid], the inhibition at 25 µM in series [1] stood at 59%. Still for that read-out and setting: then `CC1CCC(n2cc(C(=O)C(=O)O)c3cc(-c4ccc(C(F)(F)F)cc4)ccc32)C1` (stereo not shown) [Example 51, [5-(4-trifluoromethylphenyl)-1-(3-methylcyclopentyl)-1H-indol-3-yl](oxo)acetic acid], with 58%; and `O=C(O)C(=O)c1cn(CC2CCCCC2)c2ccc(-c3ccc(C(F)(F)F)cc3)cc12` [Example 52, [5-(4-trifluoromethylphenyl)-1-(cyclohexylmethyl)-1H-indol-3-yl](oxo)acetic acid], with 59%; and `O=C(O)C(=O)c1cn(CCCC2CCCC2)c2ccc(-c3ccc(C(F)(F)F)cc3)cc12` [Example 53, [5-(4-trifluoromethylphenyl)-1-(cyclopentylpropyl)-1H-indol-3-yl](oxo)acetic acid], with 67%. On the same count and under the same terms, for `O=C(O)C(=O)c1cn(C2CCCC2)c2ccc(-c3cccc(C(F)(F)F)c3)cc12` [Example 54, [5-(3-trifluoromethylphenyl)-1-(cyclopentyl)-1H-indol-3-yl](oxo)acetic acid] the value was 46%; for `O=C(O)C(=O)c1cn(CC2CCC2)c2ccc(-c3cccc(C(F)(F)F)c3)cc12` [Example 55, [5-(3-trifluoromethylphenyl)-1-(cyclobutylmethyl)-1H-indol-3-yl](oxo)acetic acid], 51%; for `CC1CCC(n2cc(C(=O)C(=O)O)c3cc(-c4cccc(C(F)(F)F)c4)ccc32)C1` (stereo not shown) [Example 56, [5-(3-trifluoromethylphenyl)-1-(3-methylcyclopentyl)-1H-indol-3-yl](oxo)acetic acid], 54%. Turning to `O=C(O)C(=O)c1cn(CC2CCCCC2)c2ccc(-c3cccc(C(F)(F)F)c3)cc12` [Example 57, [5-(3-trifluoromethylphenyl)-1-(cyclohexylmethyl)-1H-indol-3-yl](oxo)acetic acid], in series [1], the inhibition at 25 µM was determined as 57%. Same read-out and setting: for `O=C(O)C(=O)c1cn(CCCC2CCCC2)c2ccc(-c3cccc(C(F)(F)F)c3)cc12` [Example 58, [5-(3-trifluoromethylphenyl)-1-(cyclopentylpropyl)-1H-indol-3-yl](oxo)acetic acid] the value was 61%; for `COc1ccc(-c2ccc3c(c2)c(C(=O)C(=O)O)cn3CC2CCCCC2)cc1` [Example 59, [5-(4-methoxyphenyl)-1-(cyclohexylmethyl)-1H-indol-3-yl](oxo)acetic acid], 58%. For the compound `Cn1cc(CC(=O)O)c2cc(-c3ccc(C(F)(F)F)cc3)ccc21` [Example 63, [1-Methyl-5-(4-trifluoromethyl-phenyl)-1H-indol-3-yl]-acetic acid], the melting point is 167 to 168 °C.

The compound `Cc1cccc(-c2ccc3c(c2)c(CC(=O)O)cn3Cc2ccc(C(C)(C)C)cc2)c1` [Example 64, 2-[1-[4-(tert-Butyl)benzyl]-5-(3-methylphenyl)-1H-indol-3-yl]-acetic acid] had a melting point of 91 to 92 °C. Still for that read-out and setting: then `Cc1ccc(Cn2cc(CC(=O)O)c3cc(-c4ccc(OC(F)(F)F)cc4)ccc32)cc1` [Example 65, {1-(4-Methylbenzyl)-5-[4-(trifluoromethoxy)phenyl]-1H-indol-3-yl}acetic acid], with 62 to 63 °C. “[5-(3-chlorophenyl)-1-(3-methylcyclopropyl)-1H-indol-3-yl](oxo)acetic acid [Example 47]”: the “% Inhibition @ 25 μM” value in series [1] is on record as 51%.
